The values below come from ChEMBL document CHEMBL3785086, “Design and synthesis of natural product derivatives with selective and improved cytotoxicity based on a sesquiterpene scaffold” (Bioorg Med Chem Lett, 2016).

One test deals with HeLa. The test can be described thus: Cytotoxicity against human HeLa cells assessed as cell proliferation after 24 hrs by CCK-8 assay. It counts as functional, cell-based.
A short description of test [1]: Cytotoxicity against human BGC823 cells assessed as cell proliferation after 24 hrs by CCK-8 assay. Format: functional, cell-based. Particulars: BGC-823, 24 h. (Tetrazolium dyes change colour on reduction, which living cells bring about.)
Test [2] in a line: Cytotoxicity against human T24 cells assessed as cell proliferation after 24 hrs by CCK-8 assay. It counts as functional, cell-based. Particulars: T-24, 24 h.
The next test relates to A549. In words: Cytotoxicity against human A549 cells assessed as cell proliferation after 24 hrs by CCK-8 assay. It counts as functional, cell-based. To be noted: A549, 24 h.
The next test has as its system MCF7. The test can be described thus: Cytotoxicity against human MCF7 cells assessed as cell proliferation after 24 hrs by CCK-8 assay. It counts as functional, cell-based. Particulars: MCF7, 24 h.
Test [3] is described as follows: Cytotoxicity against mouse NIH/3T3 cells assessed as cell proliferation after 24 hrs by CCK-8 assay. It counts as cell-based. To be noted: NIH3T3, 24 h.
Test [4] in a line: Cytotoxicity against human HO8910 cells assessed as cell proliferation after 24 hrs by CCK-8 assay. Format: functional, cell-based. To be noted: HO-8910, 24 h.

Bounds are passed on as bounds.

As usually defined, the IC50 is the point on the concentration scale where inhibition reaches its midpoint.

Take `C=C1CCC(c2coc(/C=C(\C)C(N)=O)c2)CC1`: the half-inhibitory concentration (IC50) in the test on HeLa is 5.01 µM; in test [1], over 50 µM; in test [2], over 50 µM; in the test on A549, over 50 µM; in the test with MCF7 it was 8.47 µM; in test [3], over 50 µM. For the same compound, the half-inhibitory concentration (IC50) in test [4] worked out at 18 µM.
For `C/C(=C\c1cc(-c2ccc3c(c2)OCO3)cs1)C(N)=O`, the IC50 in the test on HeLa is over 50 µM; in test [1], over 50 µM; in test [2] it was over 50 µM; in the test with A549, over 50 µM; in the test with MCF7 it was 3.05 µM; in test [3], over 50 µM. Further, in test [4], the IC50 was over 50 µM.
On to `C/C(=C\c1ccc(-c2ccc(F)cc2)o1)C(N)=O`, for which the IC50 in the test on HeLa came out at 2.03 µM; in test [1], 0.94 µM; in test [2], 3.32 µM; in the test with A549, 1.65 µM; in the test with MCF7, 0.97 µM; in test [3], 0.96 µM. Further, in test [4], the IC50 was 0.99 µM.
As for `C/C(=C\c1ccc(-c2ccc(C)cc2)o1)C(N)=O`, the IC50 in the test on HeLa was 4.59 µM; in test [1], over 50 µM; in test [2] it was over 50 µM; with A549 it was over 50 µM; in the test on MCF7, over 50 µM; in test [3] it was over 50 µM. The IC50 in test [4] came out at 1.66 µM.
For the compound `C/C(=C\c1cc(C2=CCCCC2)co1)C(N)=O`, the IC50 in the test with HeLa was over 50 µM; in test [1] it was over 50 µM; in test [2] it was over 50 µM; in the test on A549, over 50 µM; in the test on MCF7, 6.58 µM; in test [3], over 50 µM. Also, in test [4], the IC50 is over 50 µM.
In the case of `C/C(=C\c1cc(-c2ccc(Cl)cc2)cs1)C(N)=O`, the IC50 is over 50 µM with HeLa; over 50 µM in test [1]; over 50 µM in test [2]; over 50 µM with A549; 17.1 µM with MCF7; over 50 µM in test [3]. In test [4], the IC50 is over 50 µM.
As to `C/C(=C\c1nc(-c2ccc(F)cc2)cs1)C(N)=O`, the IC50 in the test with HeLa is 5.4 µM; in test [1], over 50 µM; in test [2], over 50 µM; in the test on A549 it was 13.2 µM; in the test on MCF7 it was 3.3 µM; in test [3] it was over 50 µM. Also, in test [4], the IC50 is 4.45 µM.
Turning to `C/C(=C\c1cc(-c2ccc(S(C)(=O)=O)cc2)cs1)C(N)=O`, the IC50 (in the test on HeLa; in test [1]; in test [2]; with A549; in the test with MCF7; in test [3]) was over 50 µM each time. Besides, the IC50 in test [4] is over 50 µM.
On to `C/C(=C\c1cc(-c2ccccc2)co1)C(N)=O`, for which the IC50 was 3.28 µM with HeLa; over 50 µM in test [1]; over 50 µM in test [2]; over 50 µM in the test on A549; 3.34 µM with MCF7; over 50 µM in test [3]. In test [4], the IC50 turned out to be 42.4 µM.
As to `C/C(=C\c1cc(-c2ccc(C)cc2)cs1)C(N)=O`, the IC50 (in the test on HeLa; in test [1]; in test [2]; in the test on A549; in the test with MCF7; in test [3]) was over 50 µM in each case. The IC50 in test [4] was over 50 µM.
Regarding `C/C(=C\c1cc(C2=CCCC2)co1)C(N)=O`, the half-maximal inhibitory concentration (IC50) is 17.6 µM with HeLa; over 50 µM in test [1]; over 50 µM in test [2]; 16.6 µM in the test with A549; 15 µM with MCF7; 49.3 µM in test [3]. Moreover, the IC50 in test [4] was over 50 µM.
As for `C/C(=C\c1cc(-c2ccccc2C)cs1)C(N)=O`, the IC50 in the test with HeLa was 19.4 µM; in test [1] it was over 50 µM; in test [2], over 50 µM; with A549, over 50 µM; in the test on MCF7, 4.92 µM; in test [3], over 50 µM. For the same compound, the IC50 in test [4] came to 15.2 µM.
For `C/C(=C\c1cc(-c2ccc(F)cc2)co1)C(N)=O`, the IC50 with HeLa is 11.8 µM; in test [1], over 50 µM; in test [2], over 50 µM; in the test on A549 it was 14.9 µM; in the test on MCF7, 2.21 µM; in test [3] it was over 50 µM. The IC50 in test [4] is over 50 µM.
With `C/C(=C\c1cc(-c2ccccc2)cs1)C(N)=O`, the IC50 is 12.7 µM with HeLa; over 50 µM in test [1]; over 50 µM in test [2]; over 50 µM in the test on A549; 2.68 µM with MCF7; over 50 µM in test [3]. Moreover, in test [4], the IC50 was over 50 µM.
Turning to `C/C(=C\c1cc(-c2ccc(C)cc2)co1)C(N)=O`, the IC50 in the test on HeLa is 12 µM; in test [1], over 50 µM; in test [2] it was over 50 µM; with A549, over 50 µM; in the test with MCF7 it was 1.63 µM; in test [3], over 50 µM. Further, the IC50 in test [4] was 24.2 µM.
Take `C/C(=C\c1cc(-c2ccc([N+](=O)[O-])cc2)cs1)C(N)=O`: the IC50 in the test with HeLa was 2.9 µM; in test [1], over 50 µM; in test [2], over 50 µM; in the test with A549, 3.5 µM; in the test with MCF7, 1.21 µM; in test [3], over 50 µM. Also, the IC50 in test [4] was 2.38 µM.
Take `C/C(=C\c1nc(-c2ccccc2)cs1)C(N)=O`: the concentration for half-maximal inhibition (IC50) was 2.77 µM in the test with HeLa; over 50 µM in test [1]; over 50 µM in test [2]; over 50 µM in the test with A549; 2.38 µM with MCF7; over 50 µM in test [3]. For the same compound, the IC50 in test [4] turned out to be 3.78 µM.
Regarding `C/C(=C\c1cc(-c2ccc(F)nc2)co1)C(N)=O`, the IC50 was over 50 µM in the test with HeLa; over 50 µM in test [1]; over 50 µM in test [2]; over 50 µM in the test with A549; 14.1 µM with MCF7; over 50 µM in test [3]. In test [4], the IC50 came to 30 µM.
In the case of `C/C(=C\c1cccc(-c2ccc(C)cc2)c1)C(N)=O`, the IC50 in the test on HeLa is 24.8 µM; in test [1] it was over 50 µM; in test [2], 7.65 µM; in the test with A549 it was 5.1 µM; in the test on MCF7, 6.71 µM; in test [3], over 50 µM. Moreover, the IC50 in test [4] is 26.8 µM.
On to `C/C(=C\c1cc(-c2cccnc2)co1)C(N)=O`, for which the IC50 was over 50 µM in the test on HeLa; over 50 µM in test [1]; over 50 µM in test [2]; 6.62 µM in the test on A549; 13.2 µM with MCF7; over 50 µM in test [3]. Further, in test [4], the IC50 was 8.64 µM.
With `COc1ccc(-c2csc(/C=C(\C)C(N)=O)c2)cc1`, the IC50 (in the test with HeLa; in test [1]; in test [2]; in the test on A549; in the test on MCF7; in test [3]) was over 50 µM throughout. For the same compound, in test [4], the IC50 was over 50 µM.
`C/C(=C\c1nc(-c2ccc(C)cc2)cs1)C(N)=O`: the concentration for half-maximal inhibition (IC50) in the test on HeLa was 25 µM; in test [1] it was over 50 µM; in test [2], over 50 µM; with A549 it was over 50 µM; in the test on MCF7 it was over 50 µM; in test [3], over 50 µM. Also, the IC50 in test [4] is over 50 µM.
As for `C/C(=C\c1cc(-c2ccc(C)nc2)co1)C(N)=O`, the IC50 in the test with HeLa is over 50 µM; in test [1], over 50 µM; in test [2], over 50 µM; in the test with A549, over 50 µM; in the test with MCF7, 10.2 µM; in test [3], over 50 µM. The IC50 in test [4] was over 50 µM.
With `C/C(=C\c1cccc(-c2ccccc2)c1)C(N)=O`, the IC50 in the test with HeLa was 15.7 µM; in test [1], over 50 µM; in test [2], over 50 µM; with A549, over 50 µM; with MCF7, 6.54 µM; in test [3], over 50 µM. The IC50 in test [4] stood at 12.6 µM.
As to `C/C(=C\c1cc(-c2ccc(C(F)(F)F)cc2)cs1)C(N)=O`, the IC50 in the test with HeLa was over 50 µM; in test [1], over 50 µM; in test [2], over 50 µM; in the test on A549 it was over 50 µM; with MCF7, 50 µM; in test [3], over 50 µM. For the same compound, in test [4], the IC50 is over 50 µM.
In the case of `C/C(=C\c1cc(-c2ccc(F)cc2)cs1)C(N)=O`, the IC50 in the test with HeLa is 20.8 µM; in test [1] it was over 50 µM; in test [2], over 50 µM; in the test with A549 it was over 50 µM; with MCF7 it was 1.44 µM; in test [3], over 50 µM. For the same compound, in test [4], the IC50 is over 50 µM.
Regarding `C=Cc1ccc(-c2csc(/C=C(\C)C(N)=O)c2)cc1`, the IC50 (with HeLa; in test [1]; in test [2]; with A549; with MCF7; in test [3]) was over 50 µM in each case. Besides, the IC50 in test [4] is over 50 µM.
Take `C/C(=C\c1cc(-c2ccc(C#N)cc2)cs1)C(N)=O`: the IC50 was 0.25 µM in the test with HeLa; over 50 µM in test [1]; over 50 µM in test [2]; over 50 µM in the test with A549; 0.24 µM in the test with MCF7; over 50 µM in test [3]. Moreover, the IC50 in test [4] amounted to 0.13 µM.
